One block for each molecule: values may come before it.
Legend:
[1] = Stability in dark plastic or glass vials (light sensitivity); type: physicochemical
Description: Accordingly, one of the ways to further improve or increase stability of SkQ liquid compositions during storage and transportation is to protect it from light.

[2] = Stability of MTAs in liquid solvents (degradation rate); type: physicochemical
Method: Liquid solvents were also tested for their ability to stabilize representative MTAs SkQ1 and SkQR1. The solvents tested were water solutions of glycerol (10% to 100%), 50% lactulose, and 1,2-propylene glycol (10% to 100%, at 60° C.). Some representative results are shown below (Table 1).

[3] = tested on: human endothelial cells EA.hy926; experiment: TNF-α induced death of endothelial cells (MTT test); type: cell-based; conditions: 0.2 nM pre-incubation 4 d; TNF-α 0.25 to 50 ng/ml for 2 d
Method: Human endothelial cell line EA.hy926 (ATCC Collection; catalog number CRL-2922) was used as a model of vascular endothelium. This cell line is similar to primary HUVEC cell line (Edgell et al. (1983) PNAS, 80(12):3734-7; Edgell et al. (1990) In Vitro Cell Dev Biol., 26(12):1167-72) and widely used as a relevant model for inflammation studies (Riesbeck et al. (1998) Clin. Vaccine Immunol., 5:5675-682).
Accordingly, human endothelial cells EA.hy926 were pre-incubated with 0.2 nM SkQR1 or 2 nM SkQ1 solution in Dulbecco's Modified Eagle's Medium (DMEM) supplemented with 10% of fetal serum (Example 1) for 4 d. After that the cells were incubated overnight with fresh DMEM medium with 0.2% of fetal serum. The cells were incubated 2 d with TNF-α (0.25 ng/ml to 50 ng/ml) and cell death was monitored using standard MTT test (Berridge et al. (1996) Biochemica, 4:14-9). The data from this assay is shown as means±S.E. at least for 3 separate experiments.

[4] = Storage stability of reduced SkQ1H2 formulations (Example 9); type: physicochemical
Method: The sample also can be stabilized by being dissolved in any deoxygenated anhydrous and aprotic solvents.
The stability of SkQ1H2 in the prepared composition was investigated by storage at 4° C. in darkness (Table 12).
The stability of SkQ1H2 in the prepared composition was investigated by storage at 60° C. in darkness (Table 13).
The yield of SkQ1H2 was 2 g (approx 100% yield) in the form of light powder. The stability results are shown below (Table 14 and Table 15).
The stability of SkQ1H2 in the prepared composition was investigated by storage at 60° C. in darkness (Table 16).
The stability of SkQ1H2 in the compositions prepared by both methods was investigated by storage at 60° C. and 4° C. in darkness (Table 17).
The stability of SkQ1H2 in compositions prepared by Methods 3 and 4 was investigated by storage at 60° C. in darkness (Table 18).
The stability of SkQ1H2 in compositions prepared by both methods was investigated by storage at 60° C. in darkness (Table 18).
The stability of SkQ1H2 in the prepared solution was investigated by storage at RT in darkness (Table 19).
The stability of SkQ1H2 in the prepared solution was investigated by storage at 60° C. in darkness (Table 20).

[5] = SkQ1H2 in 55% EtOH in water, 0 h
[6] = SkQ1H2 in 55% EtOH in water, 0.5 h
[7] = SkQ1H2 in 55% EtOH in water, 1.48 h
[8] = SkQ1H2 in 55% EtOH in water, 2.8 h
[9] = SkQ1H2 in 55% EtOH in water, 3.44 h
[10] = SkQ1H2 in 55% EtOH in water, 4.37 h
[11] = SkQ1H2 in 55% EtOH in water, 23.23 h
[12] = SkQ1H2 in 55% EtOH in water, 143.45 h (~6 days)
[13] = SkQ1H2 in CH2Cl2, 143.45 h (~6 days)
[14] = SkQ1H2 powder, Storage at 60° C., day 0
[15] = SkQ1H2 powder, Storage at 60° C., day 5
[16] = SkQ1H2 powder, Storage at 60° C., day 7
[17] = SkQ1H2 powder, Storage at 60° C., day 11
[18] = SkQ1H2 powder, Storage at 60° C., day 17
[19] = SkQ1H2 powder, Storage at 60° C., day 28
[20] = SkQ1H2 powder, Storage at RT, day 0
[21] = SkQ1H2 powder, Storage at RT, day 3
[22] = SkQ1H2 powder, Storage at RT, day 5
[23] = SkQ1H2 powder, Storage at RT, day 7
[24] = SkQ1H2 powder, Storage at RT, day 11
[25] = SkQ1H2 powder, Storage at RT, day 17
[26] = SkQ1H2 powder, Storage at RT, day 28
[27] = SkQ1H2 with ascorbic acid (5 eq) and sorbite (30 wt parts), solid, time not given
[28] = SkQ1H2 with ascorbic acid (5 eq) and sorbite in 30% 1,2-propylene glycol, 60° C. in darkness, day 0
[29] = SkQ1H2 with ascorbic acid (5 eq) and sorbite in 30% 1,2-propylene glycol, 60° C. in darkness, day 3
[30] = SkQ1H2 with ascorbic acid (5 eq) and sorbite in 30% 1,2-propylene glycol, 60° C. in darkness, day 14
[31] = SkQ1H2 with ascorbic acid (5 eq) and sorbite in 30% 1,2-propylene glycol, 60° C. in darkness, day 27
[32] = SkQ1H2 with ascorbic acid (10 eq) in 55% EtOH, RT in darkness, 0 h
[33] = SkQ1H2 with ascorbic acid (10 eq) in 55% EtOH, RT in darkness, 1.5 h
[34] = SkQ1H2 with ascorbic acid (10 eq) in 55% EtOH, RT in darkness, 68 h (~3 days)
[35] = SkQ1H2 with ascorbic acid (10 eq) in 55% EtOH, RT in darkness, 118 h (~5 days)
[36] = SkQ1H2 with ascorbic acid (10 eq) in 55% EtOH, RT in darkness, 165 h (~7 days)
[37] = SkQ1H2 with sorbite (30 wt parts), solid, 60° C. in darkness, day 0
[38] = SkQ1H2 with sorbite (30 wt parts), solid, 60° C. in darkness, day 4
[39] = SkQ1H2 with sorbite (30 wt parts), solid, 60° C. in darkness, day 7
[40] = SkQ1H2 with sorbite (30 wt parts), solid, 60° C. in darkness, day 11
[41] = SkQ1H2 with sorbite (30 wt parts), solid, 60° C. in darkness, day 15
[42] = SkQ1H2 with sorbite (30 wt parts), solid, 60° C. in darkness, day 28

stability [1]: significantly increased
Degradation rate, percent per day ([2]; 100 mkM in 10% 1,2-propylene glycol, at 60° C.): 6.19 percent per day
Degradation rate, percent per day ([2]; 100 mkM in 20% 1,2-propylene glycol, at 60° C.): 0.34 percent per day
Degradation rate, percent per day ([2]; 100 mkM in 30% 1,2-propylene glycol, at 60° C.): 0.32 percent per day
Degradation rate, percent per day ([2]; 100 mkM in 40% 1,2-propylene glycol, at 60° C.): 0.06 percent per day
Degradation rate, percent per day ([2]; 100 mkM in 50% 1,2-propylene glycol, at 60° C.): <0.01 percent per day
Degradation rate, percent per day ([2]; 100 mkM in 60% 1,2-propylene glycol, at 60° C.): <0.01 percent per day
Degradation rate, percent per day ([2]; 100 mkM in 70% 1,2-propylene glycol, at 60° C.): 0.05 percent per day
Degradation rate, percent per day ([2]; 100 mkM in 80% 1,2-propylene glycol, at 60° C.): 0.23 percent per day
Degradation rate, percent per day ([2]; 100 mkM in 90% 1,2-propylene glycol, at 60° C.): 0.30 percent per day
Degradation rate, percent per day ([2]; 100 mkM in 100% 1,2-propylene glycol, at 60° C.): 0.23 percent per day
Degradation rate, percent per day ([2]; 140 mkM in 50% Glycerol): 0.7 percent per day
SMILES: CC/N=c1/cc2oc3cc(NCC)c(C)cc3c(-c3ccccc3C(=O)OCCCCCCCCCCC3=CC(=O)C(C)=C(C)C3=O)c-2cc1C [SkQR1]
cell death compared to control without MTA [3]: greatly reduced

Degradation rate, percent per day ([2]; 400 mkM in 50% Glycerol): 0.08 percent per day
SMILES: COc1cc2c(cc1OC)-c1c(CC(=O)OCCCCCCCC3=CC(=O)C(C)=C(C)C3=O)c3ccc(OC)c(OC)c3c[n+]1CC2 [SkQBP1]

stability of isolated SkQ1H2 light powder ([4]; 1 month at RT or several months at 4° C. in darkness under inert atmosphere without humidity access): excellent stability
SkQ1, % [4, 5]: 2.21%
SkQ1H2, % [4, 5]: 97.79%
SkQ1, % [4, 6]: 9.21%
SkQ1H2, % [4, 6]: 90.79%
SkQ1, % [4, 7]: 14.76%
SkQ1H2, % [4, 7]: 85.24%
SkQ1, % [4, 8]: 32.57%
SkQ1H2, % [4, 8]: 67.43%
SkQ1, % [4, 9]: 47.83%
SkQ1H2, % [4, 9]: 52.17%
SkQ1, % [4, 10]: 56.57%
SkQ1H2, % [4, 10]: 43.43%
SkQ1, % [4, 11]: 82.39%
SkQ1H2, % [4, 11]: 16.55%
SkQ1, % [4, 12]: 77.23%
SkQ1H2, % [4, 12]: 9.63%
SkQ1, % ([4]; SkQ1H2 in CH2Cl2, 0 h): 2.21%
SkQ1H2, % ([4]; SkQ1H2 in CH2Cl2, 0 h): 97.79%
SkQ1, % ([4]; SkQ1H2 in CH2Cl2, 0.5 h): 4.01%
SkQ1H2, % ([4]; SkQ1H2 in CH2Cl2, 0.5 h): 95.99%
SkQ1, % ([4]; SkQ1H2 in CH2Cl2, 1.48 h): 5.68%
SkQ1H2, % ([4]; SkQ1H2 in CH2Cl2, 1.48 h): 94.32%
SkQ1, % ([4]; SkQ1H2 in CH2Cl2, 2.8 h): 6.42%
SkQ1H2, % ([4]; SkQ1H2 in CH2Cl2, 2.8 h): 93.58%
SkQ1, % ([4]; SkQ1H2 in CH2Cl2, 3.44 h): 5.57%
SkQ1H2, % ([4]; SkQ1H2 in CH2Cl2, 3.44 h): 94.43%
SkQ1, % ([4]; SkQ1H2 in CH2Cl2, 4.37 h): 7.18%
SkQ1H2, % ([4]; SkQ1H2 in CH2Cl2, 4.37 h): 92.82%
SkQ1, % ([4]; SkQ1H2 in CH2Cl2, 23.23 h): 9.30%
SkQ1H2, % ([4]; SkQ1H2 in CH2Cl2, 23.23 h): 89.61%
SkQ1, % [4, 13]: 16.53%
SkQ1H2, % [4, 13]: 82.11%
SkQ1, % [4, 14]: 0.75%
SkQ1H2, % [4, 14]: 99.2%
SkQ1, % [4, 15]: 0.55%
SkQ1H2, % [4, 15]: 99.45%
SkQ1, % [4, 16]: 0%
SkQ1H2, % [4, 16]: 100%
SkQ1, % [4, 17]: 0.19%
SkQ1H2, % [4, 17]: 99.76%
SkQ1, % [4, 18]: 1.24%
SkQ1H2, % [4, 18]: 98.61%
SkQ1, % [4, 19]: 11.04%
SkQ1H2, % [4, 19]: 88.7%
SkQ1, % [4, 20]: 1.01%
SkQ1H2, % [4, 20]: 98.99%
SkQ1, % [4, 21]: 0.66%
SkQ1H2, % [4, 21]: 99.34%
SkQ1, % [4, 22]: 0.63%
SkQ1H2, % [4, 22]: 99.37%
SkQ1, % [4, 23]: 0.71%
SkQ1H2, % [4, 23]: 99.14%
SkQ1, % [4, 24]: 0.83%
SkQ1H2, % [4, 24]: 99.12%
SkQ1, % [4, 25]: 0.28%
SkQ1H2, % [4, 25]: 99.49%
SkQ1, % [4, 26]: 0.50%
SkQ1H2, % [4, 26]: 99.45%
number of impurities with content >0.5% ([4]; SkQ1H2 with ascorbic acid (5 eq) and sorbite (30 wt parts), solid, 1 year at 4° C. in darkness): 0
number of impurities with content >0.5% ([4]; SkQ1H2 with ascorbic acid (5 eq) and sorbite (30 wt parts), solid, 20 days at 60° C. in darkness): 0
SkQ1, % [4, 27]: 1.209%
SkQH2, % [4, 27]: 97.753%
SkQ1, % [4, 28]: 0.18%
SkQH2, % [4, 28]: 99.82%
SkQ1, % [4, 29]: 1.03%
SkQH2, % [4, 29]: 98.67%
SkQ1, % [4, 30]: 28.34%
SkQH2, % [4, 30]: 69.51%
SkQ1, % [4, 31]: 51.9%
SkQH2, % [4, 31]: 3.2%
SkQ1, % [4, 32]: 0.27%
SkQ1H2, % [4, 32]: 99.73%
SkQ1, % [4, 33]: 0.93%
SkQ1H2, % [4, 33]: 99.07%
SkQ1, % [4, 34]: 0.59%
SkQ1H2, % [4, 34]: 99.05%
SkQ1, % [4, 35]: 0.31%
SkQ1H2, % [4, 35]: 99.69%
SkQ1, % [4, 36]: 0.26%
SkQ1H2, % [4, 36]: 99.74%
SkQ1, % [4, 37]: 0.61%
SkQ1H2, % [4, 37]: 99.01%
SkQ1, % [4, 38]: 8.7%
SkQ1H2, % [4, 38]: 90.8%
SkQ1, % [4, 39]: 9.4%
SkQ1H2, % [4, 39]: 90.2%
SkQ1, % [4, 40]: 10.7%
SkQ1H2, % [4, 40]: 88.8%
SkQ1, % [4, 41]: 10.4%
SkQ1H2, % [4, 41]: 89.1%
SkQ1, % [4, 42]: 5.3%
SkQ1H2, % [4, 42]: 42.9%
oxidation to SkQ1 ([4]; exposed to air or wet atmosphere or dissolved in water or any protonic solvent): quickly oxides
SMILES: Cc1c(O)cc(CCCCCCCCCC[P+](c2ccccc2)(c2ccccc2)c2ccccc2)c(O)c1C [SkQ1H2]

Source: US9572890B2, “Oral formulations of mitochondrially-targeted antioxidants and their preparation and use” (MITOTECH SA, priority 2011, dated 2017)
